Here are results for 7 molecules from patent publication US20240335462A1, “SULFUR/PHOSPHORUS-CONTAINING ARYL COMPOUND AND APPLICATION THEREOF” (MEDSHINE DISCOVERY INC., priority 2021, published 2024).

One assay deals with TYK2 JH2 pseudokinase (Homo sapiens, UniProt P29597). Description: Inhibitory activity on TYK2 JH2 pseudokinase (TR-FRET). The class given is binding. To be noted: 60 min room temperature, read-out: Kinase half maximal inhibitory concentration IC50 TYK2 JH2. On the procedure: In this experiment, the inhibitory effect of compounds on TYK2 JH2 pseudokinase was tested using the method of time-resolved fluorescence resonance energy transfer (TR-FRET). In the experiment, TYK2 JH2 or JAK1 JH2 pseudokinase can simultaneously bind to fluorescently labeled Tracer and Tb antibody to form a “sandwich structure”. Tb antibody, functioning as a fluorescent donor, produces fluorescence at a wavelength of 495 nm under the excitation of light at a specific wavelength. Tracer, functioning as a fluorescent acceptor, can receive fluorescence at a wavelength of 495 nm and thus produce fluorescence at a wavelength of 520 nm, i.e., a time-resolved fluorescence resonance energy transfer (TR-FRET) signal, only when it is within the “sandwich structure”, i.e., when it is sufficiently close to Tb antibody. When the compound is added to compete with Tracer for binding to the pseudokinase, the binding of Tracer decreases, leading to a weakened TR-FRET signal. The inhibitory activity of the compound binding to the pseudokinase can be reflected by the ratio of signal values at 520 nm/495 nm.
The working solution consists of the following components: HEPES (pH 7.5) at a final concentration of 20 mM; MgCl2 at a final concentration of 10 mM; Brij-35 at a final concentration of 0.015%; DTT at a final concentration of 2 mM; and BSA at a final concentration of 50 μg/mL.
• a) The compound was dissolved in DMSO to achieve a storage concentration of 10 mM. • b) Various concentrations of the compound, 200 times the final concentration, were prepared in a compound dilution plate and transferred to an Echo plate. • c) The Echo instrument was used to transfer 150 nL of the compound from the Echo plate to a 384-well experimental plate. • d) 5 μL of TYK2 JH2 kinase, at three times the final concentration, was added to the 384-well experimental plate. • e) 5 μL of Tb, at three times the final concentration, was added to the 384-well experimental plate. • f) 5 μL of Tracer, at three times the final concentration, was added to the 384-well experimental plate. • g) The plate was centrifuged for 30 seconds and then incubated at room temperature for 60 minutes. • h) The fluorescence signal values at 520 nm/495 nm were measured using an Envision plate reader (PerkinElmer).
Data analysis was performed using the XL-Fit software to determine the IC50 of the compounds.

Assay [1] concerns TYK2 signaling pathway (IFN-α/pSTAT1). Description: IFN-α-stimulated pSTAT1 in human PBMC (flow cytometry). The assay is classed as cell-based. The conditions noted are these: CD4-positive cells. The procedure: (§1) The purpose of this experiment was to detect the inhibitory effect of the compounds on cytokine-activated JAK-STAT signaling pathways in human peripheral blood mononuclear cells (PBMC).
(§2) • a) PBMCs frozen in liquid nitrogen were thawed in a 37° C. water bath, and culture medium was added. The mixture was then centrifuged at 320 g for 3 minutes. • b) Cells were resuspended in culture medium, counted, and the cell concentration was adjusted to 5×10^5 cells/mL with culture medium. Subsequently, the cell suspension was inoculated into […] 96-well round-bottom plates, with 200 μL per well. The plates were incubated at 37° C. with 5% CO2 for 90 minutes. • c) Different concentrations of the test compound (starting at 2 μM, 5-fold serial dilution, a total of 8 concentrations) were added, followed by incubation at 37° C. with 5% CO2 for 30 minutes. • d) IL-6 (final concentration at 20 ng/mL) was added to the first round-bottom plate and incubated at 37° C. with 5% CO2 for 15 minutes. • e) IFNα (final concentration at 1000 U/mL) was added to the second round-bottom plate and incubated at 37° C. with 5% CO2 for 15 minutes. • f) IL-2 (final concentration at 4 ng/mL) was added to the third round-bottom plate and incubated at 37° C. with 5% CO2 for 15 minutes. • g) GM-CSF (final concentration at […]) was added to the fourth round-bottom plate and incubated at 37° C. with 5% CO2 for 15 minutes. • h) Cells were centrifuged at 320 g for 3 minutes, and each well was washed once with 200 μL of staining solution. • i) 50 μL of staining solution containing human CD33 antibody was added to each well of the GM-CSF-stimulated culture plate, and 50 μL of staining solution containing CD4 antibody was added to the remaining three culture plates. The staining was performed at 4° C. for 30 minutes. The cells were washed twice with the staining solution. • j) 100 μL of fixation buffer was added to each well, and the cells were fixed at 4° C. for 15 minutes. The cells were washed once with the staining solution. • k) 100 μL of permeabilization buffer was added to each well, and the cells were permeabilized at 4° C. for 20 minutes. The cells were washed twice with the staining solution. • l) 50 μL of staining solution containing human pSTAT1 antibody was added to each well of the IL-6 and IFN-α-stimulated culture plates, and 50 μL of staining solution containing human pSTAT5 antibody was added to each well of the IL-2 and GM-CSF-stimulated culture plates. The staining was performed at room temperature for 15 minutes. The cells were washed twice with the staining solution. • m) The cells were resuspended in 150 μL of staining solution. • n) The fluorescence intensity of pSTAT1 (stimulated by IL-6 and IFN-α) or pSTAT5 (stimulated by IL-2) in CD4-positive cells was detected using flow cytometer. The fluorescence intensity of pSTAT5 (stimulated by GM-CSF) in CD33-positive cells was also detected.
(§3) Data analysis was performed using Flowjo software to determine the IC50 of the compounds.

Assay [2] concerns JAK2/2 signaling pathway (GM-CSF/pSTAT5). Description: GM-CSF-stimulated pSTAT5 in human PBMC (flow cytometry). The assay is classed as cell-based. The conditions noted are these: CD33-positive cells. The procedure:
as §1, §2, §3
In general terms: A flow cytometer gives signals particle by particle.

Assay [3] deals with JAK1/3 signaling pathway (IL-2/pSTAT5). Description: IL-2-stimulated pSTAT5 in human PBMC (flow cytometry). The class given is cell-based. To be noted: CD4-positive cells. On the procedure: as §1, §2, §3

Sequence of TYK2 JH2 pseudokinase (P29597 589-875 limits assumed): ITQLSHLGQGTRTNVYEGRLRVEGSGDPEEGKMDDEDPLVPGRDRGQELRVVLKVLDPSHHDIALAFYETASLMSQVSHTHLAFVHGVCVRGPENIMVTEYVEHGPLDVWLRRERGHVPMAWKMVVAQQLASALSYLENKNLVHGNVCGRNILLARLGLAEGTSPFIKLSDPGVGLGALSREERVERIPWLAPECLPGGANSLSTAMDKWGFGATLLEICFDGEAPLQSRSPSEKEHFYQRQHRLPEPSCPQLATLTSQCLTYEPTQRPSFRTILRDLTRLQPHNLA

As for `CNC(=O)c1nnc(NC(=O)C2CC2)cc1Nc1cccc(-c2ccc(S(=N)(=O)C(C)C)cn2)c1OC` (single isomer, unassigned) [WX-012A], the IC50 at TYK2 JH2 pseudokinase stood at 0.08 nM; in assay [1], 2 nM.
Turning to `CNC(=O)c1nnc(NC(=O)C2CC2)cc1Nc1cccc(-c2ccc(P(=O)(C3CC3)C3CC3)cn2)c1OC` [WX-021], the IC50 on TYK2 JH2 pseudokinase was determined as 0.08 nM; in assay [1] it was 2.1 nM; in assay [2] it was 580 nM; in assay [3], 540 nM.
Consider `CNC(=O)c1nnc(NC(=O)C2CC2)cc1Nc1cccc(-c2ccc(S(=N)(=O)C(C)C)cn2)c1OC` (single isomer, unassigned) [WX-012B], for which the IC50 on TYK2 JH2 pseudokinase worked out at 0.08 nM; in assay [1] it was 1.5 nM.
With `CNC(=O)c1cnc(NC(=O)C2CC2)cc1Nc1cccc(-c2ccc(S(=O)(=O)C(C)C)cn2)c1OC.Cl` [Hydrochloride of WX-020], the IC50 at TYK2 JH2 pseudokinase was 0.08 nM; in assay [1], 1.3 nM; in assay [2] it was 1070 nM; in assay [3], 1400 nM.
For `CNC(=O)c1nnc(NC(=O)C2CC2)cc1Nc1cccc(-c2ncc(S(=N)(=O)C(C)C)cn2)c1OC` (single isomer, unassigned) [WX-011B] the same measures were 0.08 nM, 2.4 nM, 1350 nM and 773 nM.
For `CNC(=O)c1cnc(NC(=O)C2CC2)cc1Nc1cccc(-c2ncc(S(=O)(=O)C(C)C)cn2)c1OC` [WX-019], in that order: 0.09 nM, 1.5 nM, 1440 nM and 1580 nM.
Regarding `CNC(=O)c1nnc(NC(=O)C2CC2)cc1Nc1cccc(-c2ncc(S(=N)(=O)C(C)C)cn2)c1OC` (single isomer, unassigned) [WX-011A], the IC50 stood at 0.1 nM on TYK2 JH2 pseudokinase, 2.6 nM in assay [1], 1660 nM in assay [2] and 1310 nM in assay [3].
